# Key:
# POLCO (wild buckwheat) = assay: Pre-emergence herbicidal activity, cool season; assay type: in vivo, Polygonum convolvulus; conditions: lowest tested rate with 80% or greater inhibition; rates 300, 100, 30, 10 g/ha; about 14 days
# How it was run: (§1)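 Read-out: GR80, derived from percent growth inhibition relative to untreated plants at roughly 14 days after planting and treatment. Compounds went onto the surface of freshly seeded soil at 10–300 g/ha. Day/night regimes were 30/21 °C for millet and crabgrass, 18/13 °C for blackgrass and buckwheat.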
# SETVI (green foxtail) = assay: Pre-emergence herbicidal activity, cool season; assay type: in vivo, Setaria viridis; conditions: GR80 = lowest tested rate (300, 100, 30, 10 g/ha) with 80% or greater inhibition; approx. 14 days after treating; 18/13° C.
# How it was run: (§2)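 Seeds sown in sterilised fertilised topsoil received surface-applied compound in 50:50 acetone/water, typically at 300, 100, 30 and 10 g/ha, then greenhouse-grown at 30/21° C (warm-season species) or 18/13° C (cool-season species). Percent inhibition versus untreated plants was scored at about 14 days, giving GR80; an asterisk marks activity short of 80% at the top rate.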
# [1] = tested on: VERPE (creeping speedwell); assay: Pre-emergence herbicidal activity, cool season; assay type: in vivo, Veronica persicaria; conditions: lowest tested rate with 80% or greater inhibition; rates 300, 100, 30, 10 g/ha; about 14 days
# How it was run: as §2
# SASKR (russian thistle) = assay: Pre-emergence herbicidal activity, cool season; assay type: in vivo, Salsola kali; conditions: lowest tested rate with 80% or greater inhibition; rates 300, 100, 30, 10 g/ha; about 14 days
# How it was run: as §2
# STEME (common chickweed) = assay: Pre-emergence herbicidal activity, cool season; assay type: in vivo, Stellaria media; conditions: lowest tested rate with 80% or greater inhibition; rates 300, 100, 30, 10 g/ha; about 14 days
# How it was run: as §2
# SINAR (wild mustard) = assay: Pre-emergence herbicidal activity, cool season; assay type: in vivo, Sinapis arvensis; conditions: lowest tested rate with 80% or greater inhibition; rates 300, 100, 30, 10 g/ha; about 14 days
# How it was run: as §2
# [2] = tested on: AGSST (creeping bentgrass); assay: Pre-emergence herbicidal activity, cool season; assay type: in vivo, Agrostis stolonifera; conditions: GR80 = lowest tested rate (300, 100, 30, 10 g/ha) with 80% or greater inhibition; approx. 14 days after treating; 18/13° C.
# How it was run: as §2
# [3] = tested on: LAMPU (purple deadnettle); assay: Pre-emergence herbicidal activity, cool season; assay type: in vivo, Lamium purpureum; conditions: lowest tested rate with 80% or greater inhibition; rates 300, 100, 30, 10 g/ha; about 14 days
# How it was run: as §2
# [4] = tested on: GALAP (catchweed bedstraw); assay: Pre-emergence herbicidal activity, cool season; assay type: in vivo, Galium aparine; conditions: lowest tested rate with 80% or greater inhibition; rates 300, 100, 30, 10 g/ha; about 14 days
# How it was run: as §2
# AVEFA (wild oat) = assay: Pre-emergence herbicidal activity, cool season; assay type: in vivo, Avena fatua; conditions: GR80 = lowest tested rate (300, 100, 30, 10 g/ha) with 80% or greater inhibition; approx. 14 days after treating; 18/13° C.
# Protocol: (§3) Tables 5 to 8 summarize results of tests conducted as described below to determine the pre-emergence herbicidal activity, in the form of a GR80 value, of illustrative compounds of this invention. […] Compounds of the invention were typically applied at rates of 300, 100, 30, and 10 g/ha. Where herbicidal activity was evident but 80% inhibition was not achieved at the highest rate tested, an asterisk (*) is shown in the following tables.
# (§4) The pre-emergence tests were conducted by the following procedure. Topsoil was sieved to pass through a 1.27 cm screen. Fertilizer was added to the topsoil and the mixture was then sterilized by heating. The topsoil mixture was placed in a pot and compacted to a depth of 1.0 to 1.25 cm from the top of the pot. Seeds of each of several monocotyledonous and dicotyledonous annual plant species were placed on top of the soil. Additional soil was subsequently placed over the seeds to level-fill the pot. A known amount of each test compound dissolved or suspended in an appropriate organic solvent was diluted with a 50:50 mix of acetone and water and applied to the surface of the soil. After treatment the plants were placed in a greenhouse where they received 0.64 cm of overhead irrigation. All subsequent watering consisted of a light overhead mist and/or subirrigation as needed for germination and growth. Tables 5 and 6 below relate to warm season plant species which were placed after pre-emergence treatment in a greenhouse with a 30/21° C. day/night temperature regime. Tables 7 and 8 below relates to cool season plant species placed after pre-emergence treatment in a greenhouse or growth chamber with an 18/13° C. day/night temperature regime.
# (§5) Approximately 14 days after planting and treating, the plants were observed and herbicidal efficacy recorded as percent inhibition by comparison with untreated plants.
# (§6) The plant species usually regarded as weeds which were utilized in the tests are identified in the tables below according to the following legend, in which “d” indicates a dicotyledonous species and “m” a monocotyledonous species. All monocotyledonous species included in the tests herein are grasses.
# [5] = tested on: SORHA (johnsongrass (seedling)); assay: Pre-emergence herbicidal activity, warm season; assay type: in vivo, Sorghum halepense; conditions: GR80 = lowest tested rate (300, 100, 30, 10 g/ha) with 80% or greater inhibition; approx. 14 days after treating; 30/21° C.
# How it was run: (§7)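 Activity is expressed as the rate giving 80% inhibition, with 300, 100, 30 and 10 g/ha typically tested. An asterisk marks activity short of 80% at the top rate. Warm-season grasses were held at 30/21 °C; cool-season blackgrass and wild buckwheat at 18/13 °C; scoring at about 14 days.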
# SETFA (giant foxtail) = assay: Pre-emergence herbicidal activity, warm season; assay type: in vivo, Setaria faberi; conditions: GR80 = lowest tested rate (300, 100, 30, 10 g/ha) with 80% or greater inhibition; approx. 14 days after treating; 30/21° C.
# How it was run: as §7
# PANDI (fall panicum) = assay: Pre-emergence herbicidal activity, warm season; assay type: in vivo, Panicum dichotomiflorum; conditions: GR80 = lowest tested rate (300, 100, 30, 10 g/ha) with 80% or greater inhibition; approx. 14 days after treating; 30/21° C.
# Protocol: as §3, §4, §5, §6
# ECHCG (barnyardgrass) = assay: Pre-emergence herbicidal activity, warm season; assay type: in vivo, Echinochloa crus-galli; conditions: GR80 = lowest tested rate (300, 100, 30, 10 g/ha) with 80% or greater inhibition; approx. 14 days after treating; 30/21° C.
# How it was run: as §7
# BROTE (downy brome) = assay: Pre-emergence herbicidal activity, cool season; assay type: in vivo, Bromus tectorum; conditions: GR80 = lowest tested rate (300, 100, 30, 10 g/ha) with 80% or greater inhibition; approx. 14 days after treating; 18/13° C.
# Protocol: as §3, §4, §5, §6
# [6] = tested on: PANMI (wild proso millet); assay: Pre-emergence herbicidal activity, warm season; assay type: in vivo, Panicum miliaceum; conditions: GR80 = lowest tested rate (300, 100, 30, 10 g/ha) with 80% or greater inhibition; approx. 14 days after treating; 30/21° C.
# How it was run: as §1
# AMARE (redroot pigweed) = assay: Pre-emergence herbicidal activity, warm season; assay type: in vivo, Amaranthus retroflexus; conditions: GR80 = lowest tested rate (300, 100, 30, 10 g/ha) with 80% or greater inhibition; approx. 14 days after treating; 30/21° C.
# How it was run: as §2
# [7] = tested on: BRAPP (broadleaf signalgrass); assay: Pre-emergence herbicidal activity, warm season; assay type: in vivo, Brachiaria platyphylla; conditions: GR80 = lowest tested rate (300, 100, 30, 10 g/ha) with 80% or greater inhibition; approx. 14 days after treating; 30/21° C.
# How it was run: as §7
# [8] = tested on: CIRAR (canada thistle (seedling)); assay: Pre-emergence herbicidal activity, warm season; assay type: in vivo, Cirsium arvense; conditions: GR80 = lowest tested rate (300, 100, 30, 10 g/ha) with 80% or greater inhibition; approx. 14 days after treating; 30/21° C.
# How it was run: as §2
# LOLMG (annual ryegrass) = assay: Pre-emergence herbicidal activity, cool season; assay type: in vivo, Lolium multiflorum; conditions: GR80 = lowest tested rate (300, 100, 30, 10 g/ha) with 80% or greater inhibition; approx. 14 days after treating; 18/13° C.
# Protocol: as §3, §4, §5, §6
# [9] = tested on: CHEAL (common lambsquarters); assay: Pre-emergence herbicidal activity, warm season; assay type: in vivo, Chenopodium album; conditions: GR80 = lowest tested rate (300, 100, 30, 10 g/ha) with 80% or greater inhibition; approx. 14 days after treating; 30/21° C.
# How it was run: as §2
# POROL (common purslane) = assay: Pre-emergence herbicidal activity, warm season; assay type: in vivo, Portulaca oleracea; conditions: GR80 = lowest tested rate (300, 100, 30, 10 g/ha) with 80% or greater inhibition; approx. 14 days after treating; 30/21° C.
# How it was run: as §2
# SOLNI (black nightshade) = assay: Pre-emergence herbicidal activity, warm season; assay type: in vivo, Solanum nigrum; conditions: GR80 = lowest tested rate (300, 100, 30, 10 g/ha) with 80% or greater inhibition; approx. 14 days after treating; 30/21° C.
# How it was run: as §2
# ALOMY (blackgrass) = assay: Pre-emergence herbicidal activity, cool season; assay type: in vivo, Alopecurus myosuroides; conditions: GR80 = lowest tested rate (300, 100, 30, 10 g/ha) with 80% or greater inhibition; approx. 14 days after treating; 18/13° C.
# How it was run: as §1
# DIGSA (large crabgrass) = assay: Pre-emergence herbicidal activity, warm season; assay type: in vivo, Digitaria sanguinalis; conditions: GR80 = lowest tested rate (300, 100, 30, 10 g/ha) with 80% or greater inhibition; approx. 14 days after treating; 30/21° C.
# How it was run: as §1
# ABUTH (velvetleaf) = assay: Pre-emergence herbicidal activity, warm season; assay type: in vivo, Abutilon theophrasti; conditions: GR80 = lowest tested rate (300, 100, 30, 10 g/ha) with 80% or greater inhibition; approx. 14 days after treating; 30/21° C.
# Protocol: as §3, §4, §5, §6
# SORVU (shattercane) = assay: Pre-emergence herbicidal activity, warm season; assay type: in vivo, Sorghum vulgare; conditions: GR80 = lowest tested rate (300, 100, 30, 10 g/ha) with 80% or greater inhibition; approx. 14 days after treating; 30/21° C.
# How it was run: as §7
SMILES,"Pre-emergence activity GR80, POLCO (POLCO (wild buckwheat))",Pre-emergence activity (GR80) SETVI (SETVI (green foxtail)) [g/ha],"Pre-emergence activity GR80, VERPE [1] [g/ha]","Pre-emergence activity GR80, SASKR (SASKR (russian thistle)) [g/ha]","Pre-emergence activity GR80, STEME (STEME (common chickweed))","Pre-emergence activity GR80, SINAR (SINAR (wild mustard))",Pre-emergence activity (GR80) AGSST [2] [g/ha],"Pre-emergence activity GR80, LAMPU [3]","Pre-emergence activity GR80, GALAP [4]",Pre-emergence activity (GR80) AVEFA (AVEFA (wild oat)) [g/ha],Pre-emergence activity (GR80) SORHA [5] [g/ha],Pre-emergence activity (GR80) SETFA (SETFA (giant foxtail)) [g/ha],Pre-emergence activity (GR80) ECHCG (ECHCG (barnyardgrass)) [g/ha],Pre-emergence activity (GR80) BROTE (BROTE (downy brome)) [g/ha],Pre-emergence activity (GR80) PANMI [6] [g/ha],Pre-emergence activity (GR80) AMARE (AMARE (redroot pigweed)) [g/ha],Pre-emergence activity (GR80) BRAPP [7] [g/ha],Pre-emergence activity (GR80) LOLMG (LOLMG (annual ryegrass)) [g/ha],Pre-emergence activity (GR80) ALOMY (ALOMY (blackgrass)) [g/ha],Pre-emergence activity (GR80) DIGSA (DIGSA (large crabgrass)) [g/ha],also measured
CN(C)C(=O)n1cnc(S(=O)(=O)C(F)F)n1 [Example 26],300 g/ha,300,300,300,[empty],[empty],30,300 g/ha,300 g/ha,300,,,,,,,,,,,
COCCN(C)C(=O)n1cnc(S(=O)(=O)C(F)(F)Br)n1 [Example 40],[empty],,100,300,300 g/ha,100 g/ha,30,[empty],[empty],,300,300,300,100,300,,,,,,Pre-emergence activity (GR80) PANDI (PANDI (fall panicum)): 300 g/ha
CCCN(CC)C(=O)n1cnc(S(=O)(=O)C(F)(F)C(F)F)n1 [Example 63],300 g/ha,100,30,30,30 g/ha,30 g/ha,10,30 g/ha,30 g/ha,300,100,100,100,,100,100,300,100,300,300,Pre-emergence activity (GR80) CIRAR [8]: 300 g/ha; Pre-emergence activity (GR80) CHEAL [9]: 100 g/ha; Pre-emergence activity (GR80) POROL (POROL (common purslane)): 300 g/ha; Pre-emergence activity (GR80) SOLNI (SOLNI (black nightshade)): 300 g/ha; Pre-emergence activity (GR80) ABUTH (ABUTH (velvetleaf)): 300 g/ha
CCCN(CC)C(=O)n1cnc(S(=O)(=O)C(F)(F)C(F)(F)Br)n1 [Example 75],[empty],30,10,10,30 g/ha,30 g/ha,30,30 g/ha,300 g/ha,,300,300,100,300,100,,300,300,,300,Pre-emergence activity (GR80) CHEAL [9]: 300 g/ha; Pre-emergence activity (GR80) POROL (POROL (common purslane)): 300 g/ha; Pre-emergence activity (GR80) SORVU (SORVU (shattercane)): 300 g/ha
COCCN(C)C(=O)n1cnc(S(=O)(=O)C(F)(F)Cl)n1 [Example 88],300 g/ha,100,30,30,10 g/ha,30 g/ha,100,10 g/ha,100 g/ha,,,,,300,300,100,,300,300,300,
CN(C(=O)n1cnc(S(=O)(=O)C(F)(F)Cl)n1)C1CCCCC1 [Example 91],100 g/ha,300,10,30,30 g/ha,10 g/ha,100,30 g/ha,100 g/ha,,,,,300,100,,,300,300,,Pre-emergence activity (GR80) SORVU (SORVU (shattercane)): 300 g/ha; Pre-emergence activity (GR80) ABUTH (ABUTH (velvetleaf)): 300 g/ha
